# In ChEMBL document CHEMBL5316327, “Design and Synthesis of Orally Active Quinolyl Pyrazinamides as Sigma 2 Receptor Ligands for the Treatment of Pancreatic Cancer” (J Med Chem, 2023):
# The source made the active and inactive calls. The rule behind the calls is not given here.
# Legend:
# MIA PaCa-2 [1] = assay: Synergistic cytotoxicity in human MIA PaCa-2 cells at upto 1 uM measured after 7 days in presence of oxaliplatin by crystal violet staining based analysis; type: functional, cell-based; conditions: time 7.0 day
# MIA PaCa-2 [2] = assay: Synergistic cytotoxicity in human MIA PaCa-2 cells at upto 1 uM measured after 7 days in presence of paclitaxel by crystal violet staining based analysis; type: functional, cell-based; conditions: time 7.0 day
# MIA PaCa-2 [3] = assay: Upregulation of LC3-B expression in human MIA-PaCa-2 cells measured after 72 hrs; type: functional, cell-based; conditions: dose 1-5 µM
# [4] = biological target: Sigma intracellular receptor 2 (Homo sapiens, UniProt Q5BJF2); assay: Displacement of [3H][…]ditolylguanidine from human sigma 2 receptor transfected in human HEK293T cells assessed as inhibition constant by radioligand competition binding assay; type: cell-based
# HCT-116 [5] = assay: Induction of apoptosis in human HCT-116 cells assessed as early apoptotic cells at 1.0 uM measured after 48 hrs by Annexin V-Alexa Fluor 488/propidium iodide staining based flow cytometry (reference value: 2.77%); type: functional
# MIA PaCa-2 [6] = assay: Induction of apoptosis in human MIA PaCa-2 cells assessed as viable cells at 1.0 uM measured after 48 hrs by Annexin V-Alexa Fluor 488/propidium iodide staining based flow cytometry (reference value: 82.23%); type: functional; conditions: read-out: Activity
# MIA PaCa-2 [7] = assay: Additive ferroptosis activity in human MIA-PaCa-2 cells at upto 1 uM measured after 7 days in presence of deferoxamine by crystal violet staining based analysis; type: functional, cell-based; conditions: time 7.0 day
# MIA PaCa-2 [8] = assay: Induction of cell cycle arrest in human MIA PaCa-2 cells assessed as accumulation of cells in S phase at 1 uM measured after 24 hrs by propidium iodide staining-based flow cytometric analysis (reference value: 31%); type: functional
# MIA PaCa-2 [9] = assay: Induction of cell cycle arrest in human MIA PaCa-2 cells assessed as accumulation of cells in G2/M phase at 10 uM measured after 24 hrs by propidium iodide staining-based flow cytometric analysis (reference value: 16%); type: functional
# MIA PaCa-2 [10] = assay: Synergistic cytotoxicity in human MIA PaCa-2 cells at upto 1 uM measured after 7 days in presence of irinotecan by crystal violet staining based analysis; type: functional, cell-based; conditions: time 7.0 day
# [11] = biological target: Beta-1 adrenergic receptor (Homo sapiens, UniProt P08588); assay: Binding affinity to beta1 receptor (unknown origin) assessed as inhibition constant
# MIA PaCa-2 [12] = assay: Induction of apoptosis in human MIA PaCa-2 cells assessed as late apoptotic cells at 5.0 uM measured after 48 hrs by Annexin V-Alexa Fluor 488/propidium iodide staining based flow cytometry (reference value: 6.63%); type: functional
# MIA PaCa-2 [13] = assay: Additive cytotoxicity in human MIA PaCa-2 cells at upto 1 uM measured after 24 hrs in presence of roluperidone; type: functional, cell-based
# MIA PaCa-2 [14] = assay: Induction of autophagy in human MIA PaCa-2 cells assessed as upregulation of LC-3 level at 1 to 10 uM measured after 24 hrs; type: functional, cell-based; conditions: dose 1-10 µM
# HCT-116 [15] = assay: Induction of apoptosis in human HCT-116 cells assessed as early apoptotic cells at 5.0 uM measured after 48 hrs by Annexin V-Alexa Fluor 488/propidium iodide staining based flow cytometry (reference value: 2.77%); type: functional
# MIA PaCa-2 [16] = assay: Induction of cell cycle arrest in human MIA PaCa-2 cells assessed as accumulation of cells in S phase at 5 uM measured after 24 hrs by propidium iodide staining-based flow cytometric analysis (reference value: 31%); type: functional
# [17] = AUC (0 to time of last detectable concentration) in CD-1 mouse plasma at 10 mg/kg, iv; type: ADME, organism-based; parameters: dose 10 mg/kg, route iv
# [18] = biological target: 5-hydroxytryptamine receptor 2B (Homo sapiens, UniProt P41595); assay: Binding affinity to 5-HT2B receptor (unknown origin) assessed as inhibition constant
# MIA PaCa-2 [19] = assay: Additive cytotoxicity against human MIA PaCa-2 cells at upto 1 uM measured after 7 days in presence of copper chloride by crystal violet staining based analysis; type: functional, cell-based; conditions: time 7.0 day
# MIA PaCa-2 [20] = assay: Additive cytotoxicity against human MIA PaCa-2 cells at upto 1 uM measured after 7 days in presence of ammonium tetrathiomolybdate by crystal violet staining based analysis; type: functional, cell-based; conditions: time 7.0 day
# MIA PaCa-2 [21] = assay: Synergistic cytotoxicity in human MIA PaCa-2 cells at upto 1 uM measured after 7 days in presence of vemurafenib by crystal violet staining based analysis; type: functional, cell-based; conditions: time 7.0 day
# HCT-116 [22] = assay: Induction of cell cycle arrest in human HCT-116 cells assessed as accumulation of cells in G2/M phase at 1 uM measured after 24 hrs by propidium iodide staining-based flow cytometric analysis (reference value: 10%); type: functional
# HCT-116 [23] = assay: Induction of apoptosis in human HCT-116 cells assessed as viable cells at 1.0 uM measured after 48 hrs by Annexin V-Alexa Fluor 488/propidium iodide staining based flow cytometry (reference value: 79.69%); type: functional; conditions: read-out: Activity
# HCT-116 [24] = assay: Induction of apoptosis in human HCT-116 cells assessed as late apoptotic cells at 1.0 uM measured after 48 hrs by Annexin V-Alexa Fluor 488/propidium iodide staining based flow cytometry (reference value: 8.48%); type: functional
# MIA PaCa-2 [25] = assay: Induction of apoptosis in human MIA PaCa-2 cells assessed as necrotic cells at […] measured after 48 hrs by Annexin V-Alexa Fluor 488/propidium iodide staining based flow cytometry (reference value: 7.03%); type: functional; conditions: dose 2.5 µM
# MIA PaCa-2 [26] = assay: Induction of apoptosis in human MIA PaCa-2 cells assessed as early apoptotic cells at 10.0 uM measured after 48 hrs by Annexin V-Alexa Fluor 488/propidium iodide staining based flow cytometry (reference value: 4.11%); type: functional
# Panc02 = assay: Antitumor activity against mouse Panc02 cells xenografted in C57BL/6 mouse model assessed as delayed tumor growth at 60 mg/kg, ip administered daily for 28 days by caliper method; type: functional, organism-based; conditions: time 28.0 day
# [27] = Toxicity in C57BL/6 mouse assessed as effect on body weight at 30 mg/kg, po administered for 32 days and measured on day 4,7 in presence of copper sulfate; type: organism-based; conditions: in vivo, 768 h, time 32 day
# HCT-116 [28] = assay: Induction of apoptosis in human HCT-116 cells assessed as early apoptotic cells at […] measured after 48 hrs by Annexin V-Alexa Fluor 488/propidium iodide staining based flow cytometry (reference value: 2.77%); type: functional; conditions: dose 2.5 µM
# HCT-116 [29] = assay: Induction of apoptosis in human HCT-116 cells assessed as necrotic cells at 5.0 uM measured after 48 hrs by Annexin V-Alexa Fluor 488/propidium iodide staining based flow cytometry (reference value: 9.06%); type: functional
# HCT-116 [30] = assay: Induction of cell cycle arrest in human HCT-116 cells assessed as accumulation of cells in G0/G1 phase at 1 uM measured after 24 hrs by propidium iodide staining-based flow cytometric analysis (reference value: 43%); type: functional
# MIA PaCa-2 [31] = assay: Induction of cell cycle arrest in human MIA PaCa-2 cells assessed as accumulation of cells in G0/G1 phase at […] measured after 24 hrs by propidium iodide staining-based flow cytometric analysis (reference value: 53%); type: functional; conditions: dose 2.5 µM
# HCT-116 [32] = assay: Induction of cell cycle arrest in human HCT-116 cells assessed as accumulation of cells in S phase at 1 uM measured after 24 hrs by propidium iodide staining-based flow cytometric analysis (reference value: 47%); type: functional
# [33] = AUC (0 to infinity) in CD-1 mouse plasma at 10 mg/kg, iv; type: ADME, organism-based; parameters: dose 10 mg/kg, route iv
# HCT-116 [34] = assay: Induction of cell cycle arrest in human HCT-116 cells assessed as accumulation of cells in G2/M phase at 10 uM measured after 24 hrs by propidium iodide staining-based flow cytometric analysis (reference value: 10%); type: functional
# Beta-1 adrenergic receptor, sequence (P08588 whole entry): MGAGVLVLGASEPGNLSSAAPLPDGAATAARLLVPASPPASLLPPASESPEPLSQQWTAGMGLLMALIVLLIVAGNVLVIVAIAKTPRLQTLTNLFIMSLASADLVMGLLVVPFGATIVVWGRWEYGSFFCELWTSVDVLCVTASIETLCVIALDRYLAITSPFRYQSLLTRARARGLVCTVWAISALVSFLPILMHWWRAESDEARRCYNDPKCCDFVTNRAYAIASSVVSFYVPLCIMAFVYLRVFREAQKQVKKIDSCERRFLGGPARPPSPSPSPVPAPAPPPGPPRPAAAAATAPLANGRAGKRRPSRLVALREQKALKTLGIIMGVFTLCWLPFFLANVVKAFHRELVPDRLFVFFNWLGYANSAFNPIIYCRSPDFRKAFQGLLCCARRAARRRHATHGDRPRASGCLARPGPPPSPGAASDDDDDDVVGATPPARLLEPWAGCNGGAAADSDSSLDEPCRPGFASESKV
# 5-hydroxytryptamine receptor 2B, sequence (P41595 whole entry): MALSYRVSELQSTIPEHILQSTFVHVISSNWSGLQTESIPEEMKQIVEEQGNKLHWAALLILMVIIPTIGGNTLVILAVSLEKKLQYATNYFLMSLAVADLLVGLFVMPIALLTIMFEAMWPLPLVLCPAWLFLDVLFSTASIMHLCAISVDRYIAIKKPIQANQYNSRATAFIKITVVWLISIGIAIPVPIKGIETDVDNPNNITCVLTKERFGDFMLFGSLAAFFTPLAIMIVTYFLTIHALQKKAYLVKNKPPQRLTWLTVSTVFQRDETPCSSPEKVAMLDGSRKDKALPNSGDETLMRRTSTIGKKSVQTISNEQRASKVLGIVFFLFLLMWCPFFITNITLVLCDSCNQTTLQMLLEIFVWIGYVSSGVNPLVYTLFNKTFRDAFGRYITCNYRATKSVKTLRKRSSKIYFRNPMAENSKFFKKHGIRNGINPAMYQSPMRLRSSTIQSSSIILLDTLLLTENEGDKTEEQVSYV
# Sigma intracellular receptor 2, sequence (Q5BJF2 whole entry): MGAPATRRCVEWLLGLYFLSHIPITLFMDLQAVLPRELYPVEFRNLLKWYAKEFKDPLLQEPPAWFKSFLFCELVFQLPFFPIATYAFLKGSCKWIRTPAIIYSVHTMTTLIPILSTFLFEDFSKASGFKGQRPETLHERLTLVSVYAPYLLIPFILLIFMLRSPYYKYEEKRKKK
structure (smiles),measurement,setting,value
CCN(CC)CCCC(C)Nc1cnc(C(=O)Nc2ccc(Cl)c3cccnc23)cn1 (stereo not given),Activity,MIA PaCa-2 [1],inactive
same,Activity,MIA PaCa-2 [2],inactive
same,Activity,MIA PaCa-2 [3],Dose-Dependent Effect
same,Ki,[4],0.047 µM
same,Activity,HCT-116 [5],2.38%
same,viability at 1 µM,MIA PaCa-2 [6],54.6%
same,Activity,MIA PaCa-2 [7],Active
same,Activity,MIA PaCa-2 [8],40%
same,Activity,MIA PaCa-2 [9],17%
same,Activity,MIA PaCa-2 [10],inactive
same,Ki,[11],6.35 µM
same,Activity,MIA PaCa-2 [12],40.03%
same,Activity,MIA PaCa-2 [13],Active
same,Activity,MIA PaCa-2 [14],Active
same,Activity,HCT-116 [15],12.38%
same,Activity,MIA PaCa-2 [16],22%
same,AUC,[17],2600 ng·h/mL
same,Ki,[18],0.427 µM
same,Activity,MIA PaCa-2 [19],Active
same,Activity,MIA PaCa-2 [20],inactive
same,Activity,MIA PaCa-2 [21],inactive
same,Activity,HCT-116 [22],25%
same,viability at 1 µM,HCT-116 [23],78.3%
same,Activity,HCT-116 [24],9.6%
same,Activity,MIA PaCa-2 [25],5.91%
same,Activity,MIA PaCa-2 [26],32.58%
same,Activity,Panc02,Active
same,Activity,[27],Toxic
same,Activity,HCT-116 [28],8.77%
same,Activity,HCT-116 [29],5.1%
same,Activity,HCT-116 [30],41%
same,Activity,MIA PaCa-2 [31],49%
same,Activity,HCT-116 [32],34%
same,AUC(0-inf),[33],2680 ng·h/mL
same,Activity,HCT-116 [34],22%
